≈ marks a conversion by molar mass, not a printed value. Like-named read-outs stand apart in the source and are kept apart here.
Legend:
PA-027, blaIMP = assay: MIC / checkerboard with ATM; assay type: cell-based, P. aeruginosa; set-up: key to Susceptibility category: S: susceptible; I: intermediate; R: resistant; details: for MIC: Pseudomonas aeruginosa
[1] = system: NDM-1-Producing P. aeruginosa (PA-017, blaNDM); assay: MIC / checkerboard with ATM; assay type: cell-based; set-up: key to Susceptibility category: S: susceptible; I: intermediate; R: resistant; details: PA-017
PA-031, blaNDM = assay: MIC / checkerboard with ATM; assay type: cell-based, P. aeruginosa; set-up: key to Susceptibility category: S: susceptible; I: intermediate; R: resistant; details: for MIC: Pseudomonas aeruginosa
PA-044, blaNDM = assay: MIC / checkerboard with ATM; assay type: cell-based, P. aeruginosa; set-up: key to Susceptibility category: S: susceptible; I: intermediate; R: resistant
PA-037, blaIMP/NDM = assay: MIC / checkerboard with ATM; assay type: cell-based, P. aeruginosa; set-up: key to Susceptibility category: S: susceptible; I: intermediate; R: resistant; details: for MIC: Pseudomonas aeruginosa
[2] = system: ATM-Resistant CPPA (n = 15); assay: MIC distribution over clinical isolates; assay type: cell-based, P. aeruginosa; details: Pseudomonas aeruginosa
[3] = system: ATM-Susceptible CPPA (n = 11); assay: MIC distribution over clinical isolates; assay type: cell-based, P. aeruginosa; details: Pseudomonas aeruginosa
[4] = system: wild-type P. aeruginosa (ATCC 27853); assay: Time–kill assay; assay type: cell-based; details: 24 h
Experimental: Aliquots (50 μL) were taken from the incubation mixture at regular time intervals (t = 0, 3, 6, and 24 h), serially diluted in 0.85% NaCl solution, and plated on BAP. Bacterial colonies were counted, and the data are presented as the means of at least three independent experiments.

[5] = read-out: MIC50 of ATM, 5 at 0 mg/L
[6] = read-out: MIC90 of ATM, 5 at 0 mg/L

MIC (PA-027, blaIMP; PA-027, Table S2, read-out: MIC value): 32 µg/mL
MIC (PA-027, blaIMP; read-out: MIC of ATM, PA-027, ATM alone (5 at 0 mg/L)): 32 µg/mL
MIC (PA-031, blaNDM; PA-031, Table S2, read-out: MIC value): 8 µg/mL
MIC (PA-031, blaNDM; read-out: MIC of ATM, PA-031, ATM alone (5 at 0 mg/L)): 4 µg/mL
MIC (PA-044, blaNDM; Pseudomonas aeruginosa, read-out: MIC of ATM, PA-044, ATM alone (5 at 0 mg/L)): 16 µg/mL
MIC (PA-037, blaIMP/NDM; PA-037, Table S2, read-out: MIC value): 2 µg/mL
MIC (PA-037, blaIMP/NDM; read-out: MIC of ATM, PA-037, ATM alone (5 at 0 mg/L)): 4 µg/mL
MIC50 [2, 5]: 16 µg/mL (≈ 36.7 µM)
MIC90 [2, 6]: 64 µg/mL (≈ 147 µM)
MIC50 [3, 5]: 4 µg/mL (≈ 9.19 µM)
MIC90 [3, 6]: 8 µg/mL (≈ 18.4 µM)
Compound: C[C@H]1[C@H](NC(=O)/C(=N\OC(C)(C)C(=O)O)c2csc(N)n2)C(=O)N1S(=O)(=O)O [ATM, aztreonam]
Susceptibility to ATM (PA-027, blaIMP; PA-027, ATM alone): R (R (resistant, MIC ≥ 32 mg/L))
Susceptibility category (PA-027, blaIMP; PA-027, Table S2): R
Susceptibility to ATM ([1]; ATM alone): I (I (intermediate, MIC = 16 mg/L))
Susceptibility category ([1]; Table S2): I
Susceptibility to ATM (PA-031, blaNDM; PA-031, ATM alone): S (S (sensitive, MIC ≤ 8 mg/L))
Susceptibility category (PA-031, blaNDM; PA-031, Table S2): S
Susceptibility to ATM (PA-044, blaNDM; PA-044, ATM alone): I (I (intermediate, MIC = 16 mg/L))
Susceptibility category (PA-044, blaNDM; PA-044, Table S2): I
Susceptibility to ATM (PA-037, blaIMP/NDM; PA-037, ATM alone): S (S (sensitive, MIC ≤ 8 mg/L))
Susceptibility category (PA-037, blaIMP/NDM; PA-037, Table S2): S
Log CFU/mL, ATM only ([4]; ATM 1/2 MIC): 9.31 Log CFU/mL
Log CFU/mL, ATM only ([4]; ATM 1/4 MIC): 9.57 Log CFU/mL
Log CFU/mL, ATM only ([4]; ATM 1 MIC): 8.02 Log CFU/mL
Log CFU/mL, ATM only ([4]; ATM 2 MIC): 0.17 Log CFU/mL
